One block for each molecule: values may come before it.
Columns and labels:
[1] = biological target: T1, Trypanosoma cruzi ribose 5-phosphate isomerase B (TcRpiB) (Trypanosoma cruzi, UniProt Q4DBP9); test: spectrophotometric isomerase assay; Ki from Kmapp/Vmax plot; IC50 […]; assay type: biochemical
T1 construct: gene Tc00.1047053508601.119; recombinant N-terminal 6xHis-tagged TcRpiB (CL Brener Non-Esmeraldo-like) expressed in E. coli; 159 residues per monomer

[2] = biological target: T2, Trypanosoma brucei ribose 5-phosphate isomerase B (TbRpiB) (Trypanosoma brucei, UniProt Q384D1); test: spectrophotometric isomerase assay ([…] nm) and cysteine-carbazole assay; Ki from Kmapp/Vmax plot; IC50 […]; assay type: biochemical
T2 construct: gene Tb11.01.0700; recombinant N-terminal 6xHis-tagged TbRpiB expressed in E. coli; 155 residues per monomer
T2 sequence (Q384D1 entry or part of it): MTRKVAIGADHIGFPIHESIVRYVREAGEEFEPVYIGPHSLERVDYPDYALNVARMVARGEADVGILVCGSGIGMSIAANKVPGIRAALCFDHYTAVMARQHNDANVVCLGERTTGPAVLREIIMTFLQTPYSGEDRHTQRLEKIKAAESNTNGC

[3] = biological target: T1, Trypanosoma cruzi ribose 5-phosphate isomerase B (TcRpiB); test: enzyme kinetics (Km), direct spectrophotometric assay at […] nm; assay type: biochemical
[4] = tested on: O=C(CO)[C@H](O)[C@H](O)COP(=O)(O)O; test: purified protein

T1 sequence (Q4DBP9 entry or part of it): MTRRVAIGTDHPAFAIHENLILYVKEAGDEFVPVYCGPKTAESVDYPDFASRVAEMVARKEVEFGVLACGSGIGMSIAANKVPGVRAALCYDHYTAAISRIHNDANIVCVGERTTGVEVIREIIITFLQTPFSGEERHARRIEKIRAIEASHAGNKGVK

Ki [1]: 1600 µM | Ki [2]: 2200 µM
Molecule: O=C(NO)[C@H](O)[C@H](O)COP(=O)(O)O [4-PEH, 4-deoxy-4-phospho-D-erythronohydroxamic acid]

Molecule: O=P(O)(O)OC[C@H]1OC(O)[C@H](O)[C@@H]1O (stereo partly drawn) [R5P, D-ribose 5-phosphate]
enzyme kinetics (Km), direct spectrophotometric assay at 290 nm [3]: enzymes have in vitro ribose 5-phosphate isomerase activity, as these proteins can use both R5P and Ru5P as substrates

Molecule: Trypanosoma brucei ribose 5-phosphate isomerase B (TbRpiB) (Trypanosoma brucei brucei TREU927)
Km [4]: 2390 ± 940 µM | kcat [4]: 39.4 ± 5.32 s⁻¹ | kcat/Km [4]: 16400 M⁻¹ s⁻¹

Source: PMC4287489, “Ribose 5-Phosphate Isomerase B Knockdown Compromises Trypanosoma brucei Bloodstream Form Infectivity” (PLoS Neglected Tropical Diseases, 2015)
